Results taken from patent US20230141403A1 (Hoffmann-La Roche Inc., priority 2020, published 2023).
Structures can show the parent of a compound that is named as a salt. Where two headings read alike, the source gives them in different places.

Key:
[1] = test system: Acinetobacter baumannii ATCC17961; test: Antimicrobial susceptibility testing: 90% growth inhibitory concentration (IC90) determination; assay type: cell-based
Protocol: (§1) Antimicrobial Susceptibility Testing:
(§2) 90% Growth Inhibitory Concentration (IC90) Determination
(§3) The in vitro antimicrobial activity of the compounds was determined according to the following procedure:
(§4) The assay used a 10-points Iso-Sensitest broth medium to measure quantitatively the in vitro activity of the compounds against Acinetobacter baumannii ATCC17961 or ATCC17978.
(§5) Stock compounds in DMSO were serially twofold diluted (e.g. range from 50 to 0.097 μM final concentration) in 384 wells microtiter plates and inoculated with 49 μl the bacterial suspension in Iso-Sensitest medium to have a final cell concentration of ˜5×10^(5) CFU/ml in a final volume/well of 50 ul/well. Microtiter plates were incubated at 35±2° C.
(§6) Bacterial cell growth was determined with the measurement of optical density at λ=600 nm each 20 minutes over a time course of 16h. Growth inhibition was calculated during the logarithmic growth of the bacterial cells with determination of the concentration inhibiting 50% (IC50) and 90% (IC90) of the growth.
Table 2 provides the 90% growth inhibitory concentrations (IC90) in micromoles per liter of the compounds of present invention obtained against the strain Acinetobacter baumannii ATCC17961.

[2] = test system: Acinetobacter baumannii ATCC17978; test: as above; assay type: cell-based
Protocol: as §1, §2, §3, §4, §5, §6
Table 1 provides the 90% growth inhibitory concentrations (IC90) in micromoles per liter of the compounds of present invention obtained against the strain Acinetobacter baumannii ATCC17978.

[3] = Acinetobacter baumannii, ATCC17961, 16 h, 90% growth inhibitory concentration, Iso-Sensitest broth, optical density at 600 nm over 16h, 35±2° C., read-out: AB ATCC 17961 IC90
[4] = 90% growth inhibitory concentration, Iso-Sensitest broth, optical density at 600 nm over 16h, 35±2° C., read-out: AB ATCC 17961 IC90
[5] = ATCC17978, 90% growth inhibitory concentration, Iso-Sensitest broth, optical density at 600 nm over 16h, 35±2° C., read-out: AB ATCC 17978 IC90

Compound | IC90 [1, 3] [µM] | IC90 [2, 5] [µM] | further results
COc1ccc(-c2cnc3c(Nc4ccc(NC(=O)CN5CCNCC5)c(C)c4)nccn23)cc1 [Example 37, N-(4-((3-(4-methoxyphenyl)imidazo[1,2-a]pyrazin-8-yl)amino)-2-methylphenyl)-2-(piperazin-1-yl)acetamide] | 0.21 | – | –
CN=S(=O)(c1ccc(Nc2nccn3c(-c4ccc(OC)c(F)c4F)cnc23)cc1C)C1CCN(C(=O)[C@@H]2C[C@@H](O)CN2)CC1 (stereo partly drawn) [Example 73, (4-(4-((3-(2,3-difluoro-4-methoxyphenyl)imidazo[1,2-a]pyrazin-8-yl)amino)-N,2-dimethylphenylsulfonimidoyl)piperidin-1-yl)((2S,4R)-4-hydroxypyrrolidin-2-yl)methanone] | 0.33 | – | –
COc1ccc(-c2cnc3c(Nc4ccc(NC(C)=O)c(Cl)c4)nccn23)cc1 [Example 39, N-(2-chloro-4-((3-(4-methoxyphenyl)imidazo[1,2-a]pyrazin-8-yl)amino)phenyl)acetamide] | 0.1 | – | –
CN=S(C)(=O)c1ccc(Nc2nccn3c(-c4ccc(OC)c(F)c4F)cnc23)cc1C (single isomer, unassigned; (+)) [Example 21, (+)-(4-((3-(2,3-difluoro-4-methoxyphenyl)imidazo[1,2-a]pyrazin-8-yl)amino)-2-methylphenyl)(methyl)(methylimino)-l6-sulfanone] | – | – | IC90 [1, 4]: 0.26 µM
CN=S(C)(=O)c1ccc(Nc2nccn3c(-c4ccc(OC)c(F)c4F)cnc23)cc1C (centres unmarked) [Example 22, 3-(2,3-difluoro-4-methoxy-phenyl)-N-[4-(N,S-dimethylsulfonimidoyl)-3-methyl-phenyl]imidazo[l,2-a]pyrazin-8-amine] | – | – | IC90 [1, 4]: 0.084 µM
CN=S(C)(=O)c1ccc(Nc2nccn3c(-c4ccc(OC)c(F)c4F)cnc23)cc1Cl (centres unmarked) [Example 23, N-[3-chloro-4-(N,S-dimethylsulfonimidoyl)phenyl]-3-(2,3-difluoro-4-methoxy-phenyl)imidazo[1,2-a]pyrazin-8-amine] | 0.11 | – | –
COc1ccc(-c2cnc3c(Nc4ccc(S(C)(=O)=NCCCN)cc4)nccn23)c(F)c1F (centres unmarked) [Example 68, N-[4-[N-(3-aminopropyl)-S-methyl-sulfonimidoyl]phenyl]-3-(2,3-difluoro-4-methoxy-phenyl)imidazo[1,2-a]pyrazin-8-amine; formic acid] | – | – | IC90 ([1]; Acinetobacter baumannii, ATCC17961, 16 h, read-out: AB ATCC 17961 IC90 (uM)): 0.43 µM
CN=S(=O)(CCCN)c1ccc(Nc2nccn3c(-c4ccc(OC)c(F)c4F)cnc23)cc1C (centres unmarked) [Example 72, N-(4-(3-amino-N-methylpropylsulfonimidoyl)-3-methylphenyl)-3-(2,3-difluoro-4-methoxyphenyl)imidazo[1,2-a]pyrazin-8-amine] | 0.12 | – | –
CN=S(C)(=O)c1ccc(Nc2nccn3c(-c4ccc(OC)c(F)c4F)cnc23)cc1 (centres unmarked) [Example 69, 3-(2,3-difluoro-4-methoxyphenyl)-N-(4-(N,S-dimethylsulfonimidoyl)phenyl)imidazo[1,2-a]pyrazin-8-amine] | 0.2 | – | –
O=S1(=O)CCCN1c1ccc(Nc2nccn3c(-c4ccc(OC(F)F)cc4)cnc23)cc1 [Example 1, 3-[4-(difluoromethoxy)phenyl]-N-[4-(1,1-dioxo-1,2-thiazolidin-2-yl)phenyl]imidazo[1,2-a]pyrazin-8-amine] | – | 0.33 | –
Cc1cc(Nc2nccn3c(-c4ccc(OC(F)F)cc4)cnc23)ccc1N1CCCC1=O [Example 54, 1-(4-((3-(4-(difluoromethoxy)phenyl)imidazo[1,2-a]pyrazin-8-yl)amino)-2-methylphenyl)pyrrolidin-2-one] | – | 0.72 | –
CCc1cc(Nc2nccn3c(-c4ccc(OC)c(F)c4F)cnc23)ccc1NC(=O)CCN [Example 93, 3-amino-N-(4-((3-(2,3-difluoro-4-methoxyphenyl)imidazo[1,2-a]pyrazin-8-yl)amino)-2-ethylphenyl)propanamide hydrochloride] | – | – | IC90 ([2]; ATCC17978, 16 h, read-out: AB ATCC 17978 IC90 (uM)): 0.18 µM
COc1ccc(-c2cnc3c(Nc4ccc(N5CCCCC5=O)cc4)nccn23)cc1Cl [Example 44, 1-(4-((3-(3-Chloro-4-methoxyphenyl)imidazo[1,2-a]pyrazin-8-yl)amino)phenyl)piperidin-2-one] | – | 0.26 | –
COc1ccc(-c2cnc3c(Nc4ccc(NC(C)=O)c(CO)c4)nccn23)cc1 [Example 50, N-(2-(hydroxymethyl)-4-((3-(4-methoxyphenyl)imidazo[1,2-a]pyrazin-8-yl)amino)phenyl)acetamide] | – | 0.63 | –
Cc1cc(Nc2nccn3c(-c4ccc(OC(F)F)cc4)cnc23)ccc1NC(=O)CN1CCC(N)C1 (centres unmarked) [Example 59, 2-(3-aminopyrrolidin-1-yl)-N-(4-((3-(4-(difluoromethoxy)phenyl)imidazo[1,2-a]pyrazin-8-yl)amino)-2-methylphenyl)acetamide] | – | 0.25 | –
COc1ccc(-c2cnc3c(Nc4ccc(NC(=O)COCCN)c(C)c4)nccn23)cc1 [Example 75, 2-(2-aminoethoxy)-N-(4-((3-(4-methoxyphenyl)imidazo[1,2-a]pyrazin-8-yl)amino)-2-methylphenyl)acetamide hydrochloride] | – | 0.28 | –
CC(=O)Nc1ccc(Nc2nccn3c(-c4ccc(Cl)cc4)cnc23)cc1C [Example 43, N-(4-((3-(4-chlorophenyl)imidazo[1,2-a]pyrazin-8-yl)amino)-2-methylphenyl)acetamide] | – | 0.12 | –
COc1ccc(-c2cnc3c(Nc4ccc(S(=O)(=O)NCCOCCN)c(C)c4)nccn23)cc1 [Example 61, N-(2-(2-aminoethoxy)ethyl)-4-((3-(4-methoxyphenyl)imidazo[1,2-a]pyrazin-8-yl)amino)-2-methylbenzenesulfonamide] | – | 0.73 | –
O=C1CCCN1c1ccc(Nc2nccn3c(-c4ccc(OC(F)F)cc4)cnc23)cc1 [Example 35] | – | 0.15 | –

Now from value to compound, other results behind:

IC90 [1, 3] [µM] | IC90 [2, 5] [µM] | Compound | further results
0.25 | – | CCc1cc(Nc2nccn3c(-c4ccc(OC)c(F)c4F)cnc23)ccc1S(=O)(=O)N1CCN(C(=O)[C@@H]2C[C@@H](O)CN2)CC1 [Example 106, (4-((4-((3-(2,3-difluoro-4-methoxyphenyl)imidazo [1,2-a]pyrazin-8-yl)amino)-2-ethylphenyl)sulfonyl)piperazin-1-yl)((2S,4R)-4-hydroxypyrrolidin-2-yl)methanone hydrochloride] | –
0.22 | – | COc1ccc(-c2cnc3c(Nc4ccc(S(=O)(=O)C[C@H]5CC[C@H](N)CC5)c(Cl)c4)nccn23)c(F)c1F [Example 116, rac-N-(4-((((lr,4r)-4-aminocyclohexyl)methyl)sulfonyl)-3-chlorophenyl)-3-(2,3-difluoro-4-methoxyphenyl)imidazol[1,2-a]pyrazin-8-amine] | –
0.64 | – | CCc1cc(Nc2nccn3c(-c4ccc(OC)c(F)c4F)cnc23)ccc1S(=O)(=O)N1CCN(C(=O)C2(O)CCNCC2)CC1 [Example 109, (4-((4-((3-(2,3-difluoro-4-methoxyphenyl)imidazo [1,2-alpyrazin-8-yl)amino)-2-ethylphenyl)sulfonyl)piperazin-1-yl)(4-hydroxypiperidin-4-yl)methanonbydrochloride] | –
0.49 | – | COc1ccc(-c2cnc3c(Nc4ccc(N5CCC(CN)CC5)c(Cl)c4)nccn23)c(F)c1F [Example 115, N-(4-(4-(aminomethyl)piperidin-1-yl)-3-chlorophenyl)-3-(2,3-difluoro-4-methoxyphenyl) imidazo [1,2-a]pyrazin-8-amine hydrochloride] | –
– | 0.63 | COc1ccc(-c2cnc3c(Nc4ccc(S(=O)(=O)N(C)C)cc4)nccn23)cc1 [Example 77, 4-((3-(4-methoxyphenyl)imidazo[1,2-a]pyrazin-8-yl)amino)-N,N-dimethylbenzenesulfonamide] | –
– | 0.28 | COc1ccc(-c2cnc3c(Nc4ccc(NC(C)=O)c(C)c4)nccn23)c(F)c1 [Example 89, N-(4-((3-(2-fluoro-4-methoxyphenyl)imidazo [1,2-a]pyrazin-8-yl)amino)-2-methylphenyl) acetamide] | –
– | 0.58 | COc1ccc(-c2cnc3c(Nc4ccc(S(=O)(=O)N5CCOCC5)cc4)nccn23)cc1 [Example 78, 3-(4-methoxyphenyl)-N-(4-(morpholinosulfonyl)phenyl)imidazo[1,2-a]pyrazin-8-amine] | –
– | 0.17 | CC(=O)Nc1ccc(Nc2nccn3c(-c4ccc(Cl)c(F)c4)cnc23)cc1C [Example 84, N-(4-((3-(4-chloro-3-fluorophenyl)imidazo[1,2-a]pyrazin-8-yl)amino)-2-methylphenyl)] | –
– | 0.7 | CCc1cc(Nc2nccn3c(-c4ccc(OC)c(F)c4F)cnc23)ccc1N [Example 92, N1-(3-(2,3-difluoro-4-methoxyphenyl)imidazo[1,2-a]pyrazin-8-yl)-3-ethylbenzene-1,4-diamine] | –
– | 0.37 | COc1ccc(-c2cnc3c(Nc4ccc(Cn5ccnc5)c(C)c4)nccn23)cc1 [Example 119, N-[4-(imidazol-1-ylmethyl)-3-methyl-phenyl]-3-(4-methoxyphenyl) imidazo[1,2-a]pyrazin-8-amine] | –
